Measurements published in ChEMBL document CHEMBL4130375, “Design, synthesis and biological evaluation of 4-amidobenzimidazole acridine derivatives as dual PARP and Topo inhibitors for cancer therapy” (Eur J Med Chem, 2017).
Active and inactive are the calls of the source. The calls are words filed in the database; no cut-off is given here.

Legend:
[1] = tested on: HCC1937; experiment: Potency index, ratio of m-AMSA IC50 to compound IC50 for human HCC1937 cells harboring BRCA1 mutant; type: functional
[2] = tested on: MCF7; experiment: Upregulation of cleaved caspase-8 protein expression in human MCF7 cells after 24 hrs by Western blot method; type: functional, cell-based
[3] = target: Cytochrome P450 2D6 (Homo sapiens, UniProt P10635); experiment: Inhibition of CYP2D6 in human liver microsomes preincubated for 10 mins followed by NADPH/substrate addition measured after 20 mins by LC-MS/MS analysis
[4] = tested on: MCF7; experiment: Induction of apoptosis in human MCF7 cells assessed as late apoptotic cells at 5 uM after 48 hrs by Annexin V-FITC/propidium iodide staining based flow cytometry (reference value: 0%); type: functional
[5] = target: T1, Cytochrome P450 1A2 (Homo sapiens, UniProt P05177); experiment: Inhibition of CYP1A2 in human liver microsomes preincubated for 10 mins followed by NADPH/substrate addition measured after 20 mins by LC-MS/MS analysis
T1 sequence (P05177 whole entry): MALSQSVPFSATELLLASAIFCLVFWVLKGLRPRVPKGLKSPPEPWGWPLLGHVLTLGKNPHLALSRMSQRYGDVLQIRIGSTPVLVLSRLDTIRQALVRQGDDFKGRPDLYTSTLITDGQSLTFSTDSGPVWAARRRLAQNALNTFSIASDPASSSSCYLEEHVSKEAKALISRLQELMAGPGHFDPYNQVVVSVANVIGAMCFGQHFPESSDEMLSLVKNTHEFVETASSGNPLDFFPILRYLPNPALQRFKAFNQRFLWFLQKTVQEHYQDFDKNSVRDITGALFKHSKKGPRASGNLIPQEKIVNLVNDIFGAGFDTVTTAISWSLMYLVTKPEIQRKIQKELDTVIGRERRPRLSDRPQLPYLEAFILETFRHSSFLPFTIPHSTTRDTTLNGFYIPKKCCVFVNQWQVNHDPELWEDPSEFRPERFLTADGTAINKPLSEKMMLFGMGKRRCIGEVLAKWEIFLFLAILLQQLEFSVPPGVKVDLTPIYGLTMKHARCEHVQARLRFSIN

[6] = tested on: MCF7; experiment: Downregulation of CDK2 protein expression in human MCF7 cells up to 10 uM after 24 hrs by Western blot method; type: functional, cell-based
[7] = tested on: MCF7; experiment: Potency index, ratio of olaparib IC50 to compound IC50 for human MCF7 cells; type: functional
[8] = Intrinsic clearance in mouse liver microsomes at 1.11 uM preincubated for 5 mins followed by NADPH addition by LC-MS/MS analysis; type: ADME, microsome; conditions: read-out: CLH
[9] = Half life in human liver microsomes at 1.11 uM preincubated for 5 mins followed by NADPH addition by LC-MS/MS analysis; type: ADME, microsome

Sequence of Cytochrome P450 2D6 (P10635 whole entry): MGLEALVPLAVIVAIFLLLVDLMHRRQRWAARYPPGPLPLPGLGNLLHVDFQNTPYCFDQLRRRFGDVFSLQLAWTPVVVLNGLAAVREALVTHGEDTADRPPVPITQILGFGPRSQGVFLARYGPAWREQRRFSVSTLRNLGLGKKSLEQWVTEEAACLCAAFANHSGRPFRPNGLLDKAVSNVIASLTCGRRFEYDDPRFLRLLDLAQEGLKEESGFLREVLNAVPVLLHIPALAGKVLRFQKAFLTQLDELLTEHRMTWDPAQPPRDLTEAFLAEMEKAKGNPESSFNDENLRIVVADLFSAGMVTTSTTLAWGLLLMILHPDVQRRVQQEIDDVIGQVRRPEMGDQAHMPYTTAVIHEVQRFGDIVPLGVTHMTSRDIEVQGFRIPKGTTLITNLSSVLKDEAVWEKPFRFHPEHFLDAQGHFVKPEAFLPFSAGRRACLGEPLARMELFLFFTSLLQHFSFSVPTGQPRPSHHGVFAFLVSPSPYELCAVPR

IC50 [3]: > 10 µM | IC50 [5]: > 10 µM | microsomal CLint at 1.11 µM [8]: 11.4 µL/min/mg | half-life at 1.11 µM [9]: 27.8 min
Compound: Cc1cccc2c(Nc3cccc(-c4nc5c(C(N)=O)cccc5[nH]4)c3)c3ccccc3nc12
Ratio IC50 [1]: 9.5 | Activity [2]: Dose-dependent effect | Activity [4]: 36.4% | Activity [6]: Active | Ratio IC50 [7]: 17
